From patent US20220296583A1, “COMPOSITIONS AND METHODS FOR TREATMENT OF OVARIAN AND BREAST CANCER” (Board of Regents, The University of Texas System, priority 2021, published 2022) come the findings set out here.

The test concerns HDAC4 (Ser246)/HDAC5 (Ser256)/HDAC7 (Ser155). The experiment in a line: Western analysis of HDAC4/5/7 phosphorylation. The note with it: 4 μM, 24 hrs; nearly all the cell lines tested. In kind it is cell-based. How it is done:
To identify the mechanism(s) by which SIK2 inhibition decreases DNA DBS repair, it was tested whether SIK2 inhibitors decrease the phosphorylation of class IIa HDACs, which control its nuclear cytoplasmic shuttling and consequently its association with DNA. […] Next, it was investigated whether SIK2 inhibitors increase nuclear localization of HDAC5. SIK2 inhibition increased nuclear localization of HDAC5 judged by increasing nuclear florescence intensity (FIG. 7B and FIG. 8A) and the nuclear fraction of HDAC5 expression (FIG. 8B). […] Therefore, it was hypothesized that SIK2 inhibition may block MEF transcription factor activity. […] Next, it was examined whether SIK2 regulation of MEF2 activity was HDAC4/5-dependent, increasing its binding to MEF2D protein. […] These observations are consistent with the hypothesis that SIK2 inhibition increases nuclear localization of HDAC4/5, blocking MEF2 transcription (FIG. 8E).
Cells were incubated with and without treatment for the intervals indicated and then cells were incubated in lysis buffer (50 mM Hepes, pH 7.0, 150 mM NaCl, 1.5 mM MgCl2, 1 mM EGTA, 10, 10% glycerol, 1% Triton X-100, 50 mM NaF, 1 mM Na3VO4 1 mM PMSF, 10 μg/mL leupeptin and10 μg/mL aprotinin) on ice for 30 min. […] The protein concentration was assessed using a bicinchoninic acid (BCA) protein assay (Thermo Scientific, 23228). […]

Consider `COc1c(F)cc(F)cc1-c1c[nH]c2ncc(-c3cnn(C4CCN(S(C)(=O)=O)CC4)c3)cc12` [Compound B, 3-(3,5-difluoro-2-methoxyphenyl)-5-(1-(1-(methylsulfonyl)piperidin-4-yl)-1H-pyrazol-4-yl)-1H-pyrrolo[2,3-b]pyridine], for which the “phosphorylation of HDAC4/HDAC5/HDAC7” value is “significantly decreased”.
